# Source: paper PMC11984388, “A brain-accessible peptide modulates stroke inflammatory response and neurotoxicity by targeting BDNF-receptor TrkB-T1 specific interactome” (Theranostics, 2025)
# Residues, ends and D or L forms follow the SMILES beside them. *: point of attachment. Biotin = O=C1N[C@H]2[C@H](CS[C@H]2CCCCC(=O)*)N1
# How the values were obtained:
# [1] = Peptide delivery to brain cortex of undamaged animals; assay type: in vivo; conditions: 3 nmol/g i.v. (retro-orbital), undamaged male mice, sacrificed 30 min after; Fluorescein Avidin D (Fig S5)
# Procedure: Vehicle (saline), Bio-TMyc or Bio-TT1Ct (3 nmol/g) were retro-orbitally injected in mice one hour after induction of photothrombotic damage or, alternatively, undamaged animals. In the first case, animals were sacrificed 5 h after damage induction while, the second group was sacrificed 30 min after peptide administration. The details of brain fixation and cryoprotection for peptide visualization and/or immunohistochemistry are provided in the Supplementary material. […]
# Finally, the sa mple s were mounted in Prolong Diamond. The images were acquired using an inverted Zeiss LSM 710 laser confocal microscope (Jena, Germany) with a 40x or 63x Plan-Apochromatic oil immersion objective. Images corre spond to single se ctions and were normalized for eac h colour se para tely and process ed for presenta tion with ImageJ (NIH Image) and Fiji.
# Peptide visualization and immunohistochemis tr y in brain cortex
# For peptide visua liz ation in undamaged or damaged brains, animals were deeply anes thetized and intra cardially perfus ed with cold PBS and 4% paraformalde hyde in PBS. Brains were post-fixed in the sa m e fixative at 4°C for 24 h and cryoprote cted in 30% suc ros e for 48 h at 4°C. […]
# [2] = tested on: neurons of primary cortical cultures; test: Neuronal viability (MTT) in non-stimulated cultures; assay type: cell-based, rat
# Procedure: Cultures were prepared from cerebral cortex of 18-day-old Wistar rat embryos, both genders indistinctly included. Unless otherwise indicated, glial growth was inhibited after 7 days in vitro (DIVs), experimental treatments taking place after 12 DIVs. These cultures present a high percentage of neurons, combined with glial cells, mostly astrocytes. To induce excitotoxicity, cultures were incubated with NMDA (100 µM) and its co-agonist glycine (10 µM), herein denoted simply as NMDA, which induce a strong excitotoxic response in mature neurons but have no effect on astrocyte viability,[47]. When indicated, cultures were preincubated for 30 min with indicated concentrations of Tat-derived CPPs before NMDA treatment, peptides being kept in the medium along treatment. Total cell or neuronal viability assessment was established by the thiazolyl blue formazan (MTT) reduction assay. Further details are provided as Supplementary material. […]
# skull for 10 min. Br ain injury encompas se s damage to vas cular endothelium, platelet activation, and subs equent microvascula r thrombotic occlus ion of the irradiate d region. The ar eas underneath this ste reotaxic position that result irradiate d ar e the prima ry motor cortex and the prima ry soma tos ens ory cortex (hindlimb and forelimb). Once completed surgery, the incision was sutured, and mice were allowed to recover. […]
Molecule,Crossing of the BBB and delivery to cortical cells [1],Intrinsic toxicity ([2]; concentrations lower than 25 µM),Toxicity for non-stimulated cultures ([2]; higher dose employed (25 µM))
"CC[C@H](C)[C@H](NC(=O)[C@H](CC(C)C)NC(=O)[C@H](CCCCN)NC(=O)[C@H](CCC(N)=O)NC(=O)[C@H](CCC(=O)O)NC(=O)[C@H](CCC(=O)O)NC(=O)[C@H](C)NC(=O)[C@H](CCCNC(=N)N)NC(=O)[C@H](CCCNC(=N)N)NC(=O)[C@H](CCCNC(=N)N)NC(=O)[C@H](CCC(N)=O)NC(=O)[C@H](CCCNC(=N)N)NC(=O)[C@H](CCCNC(=N)N)NC(=O)[C@H](CCCCN)NC(=O)[C@H](CCCCN)NC(=O)[C@H](CCCNC(=N)N)NC(=O)CNC(=O)[C@H](Cc1ccc(O)cc1)NC(=O)CCCC[C@@H]1SC[C@@H]2NC(=O)N[C@@H]21)C(=O)N[C@@H](CO)C(=O)N[C@@H](CCC(=O)O)C(=O)N[C@@H](CCC(=O)O)C(=O)N[C@@H](CC(=O)O)C(=O)N[C@@H](CC(C)C)C(=O)N[C@@H](CC(C)C)C(=O)N[C@@H](CCCNC(=N)N)C(N)=O [Bio-TMyc, reference compound] (Biotin-YGRKKRRQRRRAEEQKLISEEDLLR-NH2)",able to cross the BBB and efficiently reach most cortical cells in 30 min,–,–
Ac-YGRKKRRQRRRPPFVLFHKIPLDG-NH2 [TT1Ct],–,not intrinsically toxic,toxic
